Reference: ChEMBL document CHEMBL1629496, “Four diphenylpropanes and a cycloheptadibenzofuran from Bussea sakalava from the Madagascar dry forest” (J Nat Prod, 2010)
pIC50: −log10 of the molar value.

Test system: A2780
Experiment: Antiproliferative activity against drug-sensitive human A2780 cells
Format: functional, cell-based

Compound | pIC50
COc1cc(OC)c(CCCc2ccc(OC)c(O)c2O)cc1O [BUSSEALIN B] | 4.62
COc1cc(OC)c(OC)cc1CCCc1ccc(OC)c(O)c1O [BUSSEALIN D] | 4.40
COc1ccc(CCCc2ccc(OC)c(O)c2O)cc1O [BUSSEALIN C] | 4.44
COc1ccc(CCCc2cc(O)c(OC)c(O)c2)c(O)c1O [BUSSEALIN A] | 4.44
COc1c(O)c2c3c(oc4c(OC)c(O)cc(c43)CCC2)c1OC [BUSSEALIN E] | 4.35
